Assay results published in patent US9814731B2, “Method for the induction of phase 2 related genes in a mammal comprising administering exemestane” (THE JOHNS HOPKINS UNIVERSITY, priority 2013, dated 2017).
pIC50: −log10 of the molar value.

Legend:
NQO1 [1] = test: NQO1 assay in murine hepatoma Hepa1c1c7 cells; assay type: cell-based; conditions: for CD value (concentration required to double the specific activity of NQO1): 48 hours exposure; for inducer activity for NQO1: concentrations up to 20 μM
Description: (§1) Cells (10,000 per well) were grown in 96-well plates for 24 hours, then exposed to serial dilutions of inducers for 48 hours, and lysed in 0.08% digitonin. Enzymatic activity of NQ01 in cell lysates was determined with menadione as a substrate (Anal Biochem 169: 328-336 (1988), Methods Enzymol 382(B): 243-258 (2004)). The concentrations required to double the specific activity of NQO1 (CD values) were used to quantify inducer potency.

NQO1 [2] = test: NQO1 assay in murine 308 keratinocytes; assay type: cell-based; conditions: 308 cells, 48 hours exposure
Description: as §1

NQO1 [3] = test: NQO1 assay in human retinal pigment epithelial ARPE-19 cells; assay type: cell-based; conditions: 48 hours exposure
Description: as §1

NQO1 [4] = test: NQO1 assay in rat H9c2 myocardiocytes; assay type: cell-based; conditions: H9c2 cells, 48 hours exposure
Description: as §1

[5] = tested on: Hepa1c1c7, ARPE-19, 308 and H9c2 cells; test: Cytotoxicity in all cell lines of the NQO1 assay (Hepa1c1c7, ARPE-19, 308, H9c2); assay type: cell-based; conditions: up to 20 μM, the highest concentration tested
heme oxygenase-1 (HO-1) = test: Real-time PCR of HO-1 mRNA in H9c2 cells; assay type: cell-based, rat; conditions: 10 μM, 6 hours
Description: (§2) Total mRNA from cells was extracted with TRIzol reagent (Invitrogen, Carlsbad, Calif.). […] was synthesized by the iScript cDNA Synthesis Kit (Bio-Rad Laboratories, Inc., Hercules, Calif.). Quantitative real-time PCR analysis was performed using the 7000 Sequence Detection System (Applied Biosystems, Foster City, Calif.). All primers were optimized and a final primer concentration of 300 nM was used for all reactions. Primer sequences for gene amplification were as follows: NAD(P)H: quinone oxidoreductase 1 (NQO1): fwd 5′-[…]-3′ (SEQ ID NO: 1), rev 5′-[…]-3′ (SEQ ID NO: 2); heme oxygenase-1 (HO-1): fwd 5′-[…]-3′ (SEQ ID NO: 3), rev 5′-[…]-3′ (SEQ ID NO: 4). (3-actin (endogenous control): fwd 5′-[…]-3′ (SEQ ID NO: 5), rev 5′-catcllllcacggttggcctta-3′ (SEQ ID NO: 6). The reactions were assembled using 5 ng of cDNA, 1× Power SYBR Green PCR Master Mix (Life Technologies), forward and reverse primers, and nuclease-free water. Relative mRNA expression was normalized to β-actin. Gene expression was calculated using the comparative 2^−ΔΔCT method.

NQO1 [6] = test: Real-time PCR of NQO1 mRNA in H9c2 cells; assay type: cell-based, rat; conditions: 10 μM, 6 hours
Description: as §2

NQO1 [7] = test: NQO1 induction in mouse skin by topical application; assay type: in vivo, SKH-1 hairless mice; conditions: three applications at 24-hour intervals
Description: Eleven-month-old female SKH-1 hairless mice (n=5) purchased from Charles River Laboratories were treated three times at 24-hour intervals on the backs with 0, 1 and 2 μmol of exemestane dissolved in 80% aqueous acetone (40 μL) over about a 2.0 cm^2 area. Mice were euthanized 24 hours after the final dose. Each treated segment of the dorsal skin was harvested, pulverized in liquid N2, and homogenized in 10 volumes of 0.25 M sucrose in 10 mM Tris buffer (pH 7.4). After three freeze-thaw cycles, the homogenates were centrifuged at 14,000 rpm and 4° C. for 30 minutes, and the supernatant fractions were analyzed for protein concentration and NQO1 activity. All animal experiments were in compliance with National Institutes of Health Guidelines and were approved by The Johns Hopkins University Animal Care and Use Committee.

ARPE-19 cells [8] = test: Intracellular ROS in ARPE-19 cells challenged with tert-butyl hydroperoxide; assay type: cell-based, human; conditions: ARPE-19, 24 hours pretreatment, 500 μM tert-butyl hydroperoxide
Description: (§3) ARPE-19 or MEF cells (10,000 per well) in 96-well plates (black-walled wells with clear bottom) were treated with serial dilutions of exemestane for 24 hours, and then incubated with 20 μM H2DCFDA for 30 minutes (Chem Res Toxicol 5: 227-231(1992)). After washing with Dulbecco's phosphate-buffered saline (DPBS) twice, the cells were challenged with 500 μM tert-butyl hydroperoxide for 30 minutes, and fluorescence intensity was measured in SpectraMax GeminiEM plate reader (Molecular Devices) with excitation at 485 nm and emission at 530 nm. Murine 308 keratinocytes (40,000 per well) were plated in 24-well plates and grown for 24 hours. Medium was then replaced with medium containing different concentrations of exemestane (0, 2, 4, 8 μM). After further incubation for 24 hours, cells were incubated with 20 μM H2DCFDA for 30 minutes, washed twice with DPBS twice and exposed to 5 or 10 J/cm^2 UVA (340-400 nm). Immediately after UVA irradiation, fluorescence intensity was measured by a microplate reader.

ARPE-19 cells [9] = test: Cytotoxicity of oxidative stresses in ARPE-19 cells (MTT); assay type: cell-based, human; conditions: ARPE-19, 24 hours pretreatment 0-20 μM
Description: (§4) ARPE-19 cells (10,000 cells/well) in 96-well plates were treated with serial dilutions of exemestane for 24 hours, and exposed to tert-butyl hydroperoxide or 4-hydroxynonenal in serum-free medium for 4 hours. The cells were then incubated in serum-free medium for additional 20 hours, washed with DPBS, and cell viability was determined using the colorimetric procedure based on the reduction of a water-soluble tetrazolium salt, 3-(4,5-dimethylthiazo-2-yl)-2,5-diphenyltetrazolium bromide (MTT). H9c2 cells (10,000 cells/well) in 96-well plates were treated with a range of concentrations of exemestane. After 24 hours, the cells were washed with DPBS, and exposed to 2 mM Na2S2O4 in serum-free medium for 1 hour. The cells were then washed with DPBS and incubated in complete medium containing 10% FBS for 24 hours, and then cell viability was measured by the MTT assay.

308 keratinocytes = test: UVA-stimulated ROS production in murine 308 keratinocytes; assay type: cell-based; conditions: 24 hours pretreatment, 5 or 10 J/cm^2 UVA
Description: as §3

H9c2 cells = test: Hypoxia/reoxygenation injury in H9c2 cardiomyocytes (MTT); assay type: cell-based, rat; conditions: H9c2, 24 hours pretreatment, 10 μM
Description: as §4

NQO1 [10] = test: NQO1 assay in wild-type MEF; assay type: cell-based, mouse; conditions: 48 hours
Description: as §1

NQO1 [11] = test: NQO1 assay in Nrf2-knockout MEF; assay type: cell-based, mouse; conditions: 48 hours
Description: as §1

WT MEF cells = test: ROS in wild-type MEF challenged with tert-butyl hydroperoxide; assay type: cell-based, mouse; conditions: 24 hours pretreatment
Description: as §3

Nrf2-/- MEF cells = test: ROS in Nrf2-/- MEF challenged with tert-butyl hydroperoxide; assay type: cell-based, mouse; conditions: 24 hours pretreatment
Description: as §3

iNOS [12] = test: LPS-activated iNOS (NO production, Griess reaction) in RAW264.7 cells; assay type: cell-based, murine; conditions: for pIC50: Mus musculus, RAW264.7, 10 ng/ml LPS, 48 h, read-out: IC50 of NO generation; for inhibition of LPS-stimulated NO production: RAW264.7, up to 20 μM
Description: RAW264.7 cells (20,000 per well) in 96-well plates, were grown for 24 hours, and exposed to serial dilutions of exemestane in the presence of 10 ng/ml LPS. […] The nitrite values of cells treated with LPS but without test compounds were used as controls.

RAW264.7 cells = test: Cytotoxicity in RAW264.7 cells; assay type: cell-based, murine; conditions: RAW264.7, 20 μM
iNOS [13] = test: LPS-activated iNOS (NO production) in wild-type mouse peritoneal macrophages; assay type: cell-based; conditions: Peritoneal macrophage, single agent, 100 ng/ml LPS, 24 hours, read-out: concentration required for 50% inhibition of LPS-stimulated nitric oxide generation
Description: (§5) Nrf2−/− mice on C57BL/6 background were initially established by Itoh et al. WT C57BL/6 mice were purchased from The Jackson Laboratory. Macrophages were harvested by lavage from the peritoneal cavity with DPBS 4 days after an i.p. injection of thioglycolate broth (Brewer, 4%). Isolated cells were plated into 96-well plates at a density of 10^5 cells per well in RPMI 1640 medium containing 2 mM Lglutamine, 10% heat-inactivated FBS, 100 U/ml […]. After 3 hours of incubation at 37° C. in 5% CO2. nonmacrophage cells were washed away with DPBS. The remaining macrophages were exposed immediately to serial dilutions of exemestane, sulforaphane or a combination of both compounds in the presence of 100 ng/ml LPS, and incubated for 24 hours before measurement of iNOS.
(§6) RAW264.7 cells (20,000 per well) in 96-well plates, were grown for 24 hours, and exposed to serial dilutions of exemestane in the presence of 10 ng/ml LPS. After 48-hour incubation, nitrite concentration in culture supernatant fractions of RAW264.7 cells or mouse peritoneal macrophages, measured as an indicator of iNOS induction, was determined by the Griess reaction (Cancer Res 58: 717-723 (1998), Proc Natl Acad Sci USA 105: 15926-15931 (2008)). The nitrite values of cells treated with LPS but without test compounds were used as controls.

iNOS [14] = test: LPS-activated iNOS (NO production) in Nrf2-/- mouse peritoneal macrophages; assay type: cell-based; conditions: LPS 100 ng/ml, 24 hours
Description: as §5, §6

NF-κB = test: LPS-induced NF-κB luciferase reporter in U937 3×κB-LUC cells; assay type: cell-based, human; conditions: LPS 10 ng/ml; for effect on LPS-activated NF-κB by itself: 6 hours, exemestane up to 30 μM; for effect on the inhibitory effect of sulforaphane on NF-κB activation: combined with sulforaphane
Description: Human monocytic U937-3×κB-LUC cells were transferred to medium with 2% heat-inactivated FBS in 24-well plates (1×10^6 cells/well) and incubated overnight. Then cells were incubated with exemestane, sulforaphane, combination of both compounds, or vehicle control for 30 minutes, and exposed to LPS (10 ng/ml). After an additional 6-hour incubation, cells were harvested and NF-κB-driven luciferase activity was assayed according to the manufacturer's instructions (Promega, Madison, Wis.). Luciferase activity was normalized to total protein concentration to compensate for possible cell toxicity of the compounds.

breast cancer = conditions: 4560 women at moderately increased risk for developing breast cancer; cited from earlier work
Hepa1c1c7 cells = test: Cytotoxicity in Hepa1c1c7 cells; assay type: cell-based, murine; conditions: 20 μM

Row | Structure (SMILES) | CD value (concentration required to double the specific activity of NQO1) (NQO1 [1]) | CD value (concentration required to double the specific activity of NQO1) (NQO1 [2]) | CD value (concentration required to double the specific activity of NQO1) (NQO1 [3]) | CD value (concentration required to double the specific activity of NQO1) (NQO1 [4]) | NQO1 activity (NQO1 [10]) | NQO1 activity (NQO1 [11]) | pIC50 (iNOS [12]) | toxicity (RAW264.7 cells) | pIC50 (iNOS [13]) | effect on LPS-activated NF-κB by itself (NF-κB) | effect on the inhibitory effect of sulforaphane on NF-κB activation (NF-κB) | inducer activity for NQO1 (NQO1 [1]) | inhibition of LPS-stimulated NO production (iNOS [12]) | also measured
1 | C=C1C[C@@H]2[C@H](CC[C@]3(C)C(=O)CC[C@@H]23)[C@@]2(C)C=CC(=O)C=C12 [Exemestane, 6-methyleneandrosta-1,4-diene-3,17-dione] | 0.65 µM | 0.65 µM | 2.2 µM | 2.9 µM | dose-dependently induced NQO1 activity | not affected | 5.60 | no toxicity | 4.62 | no effect | dramatically enhanced | – | – | cytotoxicity [5]: no cytotoxicity; increase in mRNA levels of HO-1 over control cells (heme oxygenase-1 (HO-1)): greater than 8 fold; increase in NQO1 mRNA expression over control cells (NQO1 [6]): 3 fold; elevation of NQO1 activity in homogenates of skin (NQO1 [7]; 0.5 μmol/cm^2 per application): 1.3 fold; elevation of NQO1 activity in homogenates of skin (NQO1 [7]; 1.0 μmol/cm^2 per application): 1.7 fold; ROS production stimulated by tert-butyl hydroperoxide (ARPE-19 cells [8]): suppressed ROS production; protection against cytotoxicity of tert-butyl hydroperoxide (ARPE-19 cells [9]; oxidant 0.2, 0.4, 0.8 mM for 4 hours): protected against cytotoxicity; protection against cytotoxicity of 4-hydroxynonenal (ARPE-19 cells [9]; oxidant 10, 20, 40 μM for 4 hours): protected against cytotoxicity; ROS in UVA-irradiated cells (308 keratinocytes): dose-dependently led to the reduction of ROS; cell viability after hypoxia/reoxygenation (H9c2 cells): almost totally restored cell viability; tert-butyl hydroperoxide-stimulated ROS levels (WT MEF cells): clearly suppressed; protection against tert-butyl hydroperoxide-stimulated ROS (Nrf2-/- MEF cells): no protection; inhibition of LPS-stimulated NO production in Nrf2-/- compared with WT macrophages (iNOS [14]): much less effective inhibitor; reduction of the risk of breast cancer relative to placebo (breast cancer): 65%
2 | C[S+]([O-])CCCCN=C=S (stereo not drawn) [sulforaphane, R,S-sulforaphane] | 0.2 µM | 0.2 µM | 0.7 µM | 0.9 µM | dose-dependently induced NQO1 activity | not affected | 6.30 | – | 5.82 | – | – | – | – | –
3 | N#Cc1ccc(C(c2ccc(C#N)cc2)n2cncn2)cc1 [letrozole] | – | – | – | – | – | – | – | no toxicity | – | no effect | did not enhance | no inducer activity | did not inhibit | –
4 | CC/C(=C(\c1ccccc1)c1ccc(OCCN(C)C)cc1)c1ccccc1 [tamoxifen] | – | – | – | – | – | – | – | – | – | – | – | did not induce NQO1 activity | did not inhibit | cytotoxicity (Hepa1c1c7 cells): about 90%; cytotoxicity (RAW264.7 cells): 50%
